Data reported in publication PMC12851007 (Angewandte Chemie (International Ed. in English), 2025).
Where a SMILES comes first, the peptide text is derived from it.

Assays:
[1] = Dual-channel assay, CX4/LCG channel, POPC/POPS vesicles; type: in vitro ADME; conditions: 12.5 µM POPC/POPS(9:1)⸧CX4/LCG-LUVs and 12.5 µM POPC/POPS(9:1)⸧CF-LUVs in 10 mM Hepes, 175 mM glucose, pH 7.5; error = SD of fit, n = 1
From the text: (§1) Ultimately, we have also tested the new conditions with vesicles containing the anionic lipid 1‐palmitoyl‐2‐oleoyl‐phosphatidylserine (POPS) with TP10, Pep‐1, and the LRLLRW peptide (Figures S41–S43 and Table S11). The results confirmed that the absolute activity as well as the difference between the CF dye efflux assay and the tandem membrane assay was nearly unaffected by the presence of 10% POPS with the only exception that the membrane‐translocating ability of TP10 was enhanced.
(§2) Assay protocol. An appropriate volume of the liposome stock solutions was diluted to 2 mL with outside buffer in a 10 ×10 mm quartz glass cuvette to afford a phospholipid concentration of 25 µM. The cuvette was placed into a thermostatted fluorimeter sample holder and gentl y stirred at 300 rpm at (25.0± 0.1) °C. Subsequentl y, the time-dependent change in fluorescence intensity (C F: λ exc = 492 nm, λ em = 517 nm) was recorded during addition of 20 µL peptide stock solution of var ying concentrations at 60 s and 20µ L of a calibration cocktail (1. 6% […]
Time-dep endent fluores cence intensit y traces, I (t), were subsequentl y normalized to fractional intensities, If(t), using equation (1) and the concentration- dependent fractional intensities just before the addition of th e calibration co cktail, I f, w ere then normaliz ed to fr actional membran e activities, Y, using equation (2). The fractional membrane activities, Y, were subsequently plotted against the peptide concentration, c, and anal ysed using the Hill equation (3) to obtain the effective molar concentration, EC 50, and the Hill coefficient, n. For peptides with too low activity to determine Y max ex perimentall y, Y max was fixed at 1.0 during fitting. […]
Dual-Channel Measurements
Vesicles w ere prep ared a s described abov e (se e en try (4) in Table S2 and entry (3) in Table S3) and eluted with freshl y prepared 10 mM Hepes, 175mM glucos e, pH 7.5 i n the size exclusion chromatograph y. For the measurements, an approp riate volume o f the liposome stock solutions was diluted to 2m L in a 10× 10 mm PS cuvette wi th 10 mM Hep es bu ffer and 175 mM glucos e at pH 7.5 to afford 12.5µM POPC ⊃CX4/LCG-LUVs and 12.5 µM POPC⊃CF-LUVs (25 µM POPC total). The cuvette was placed into a thermostatted fluorimeter sample holder at 25.0 °C and gentl y stirred at 300 rpm. The fluorescence intensity w as simultaneous l y r eco rded in the CF chann el ( λ exc = 525 nm, λ em = 545 nm) and in the LCG channel ( λ exc = 369 nm, λ em = 475 nm) with an ex citation slit width of 5 nm and an emission slit width of 5 n m during addition of 20 µL peptide stock solution of varying concentrations at 60 s and 20 µL of a calibration

[2] = Dual-channel assay, CF channel, POPC/POPS vesicles; type: biochemical; conditions: 12.5 µM POPC/POPS(9:1)⸧CX4/LCG-LUVs and 12.5 µM POPC/POPS(9:1)⸧CF-LUVs in 10 mM Hepes, 175 mM glucose, pH 7.5; error = SD of fit, n = 1
From the text: as §1, §2
Time-dep endent fluores cence intensit y traces, I (t), were subsequentl y normalized to fractional intensities, If(t), using equation (1) and the concentration- dependent fractional intensities just before the addition of th e calibration co cktail, I f, w ere then normaliz ed to fr actional membran e activities, Y, using equation (2). […]
Vesicles w ere prep ared a s described abov e (se e en try (4) in Table S2 and entry (3) in Table S3) and eluted with freshl y prepared 10 mM Hepes, 175mM glucos e, pH 7.5 i n the size exclusion chromatograph y. […] The fluorescence intensity w as simultaneous l y r eco rded in the CF chann el ( λ exc = 525 nm, λ em = 545 nm) and in the LCG channel ( λ exc = 369 nm, λ em = 475 nm) with an ex citation slit width of 5 nm and an emission slit width of 5 n m during addition of 20 µL peptide stock solution of varying concentrations at 60 s and 20 µL of a calibration

CC[C@H](C)[C@H](NC(=O)[C@H](CCCCN)NC(=O)[C@H](CCCCN)NC(=O)[C@H](C)NC(=O)[C@H](CC(C)C)NC(=O)[C@H](C)NC(=O)[C@H](C)NC(=O)[C@H](CC(C)C)NC(=O)[C@H](C)NC(=O)[C@H](CCCCN)NC(=O)[C@H](CC(C)C)NC(=O)[C@H](CC(N)=O)NC(=O)[C@@H](NC(=O)[C@H](CCCCN)NC(=O)CNC(=O)[C@H](CC(C)C)NC(=O)[C@H](CC(C)C)NC(=O)[C@H](Cc1ccc(O)cc1)NC(=O)CNC(=O)[C@H](C)N)[C@@H](C)CC)C(=O)N[C@@H](CC(C)C)C(=O)O [TP10]
EC50 [1]: 0.076 ± 0.01 µM
EC50, dual-channel assay, CX4/LCG channel, POPC/POPS [1]: enhanced
EC50 [2]: 0.027 ± 0.002 µM

CC(C)[C@H](NC(=O)[C@H](CCCCN)NC(=O)[C@H](CCCNC(=N)N)NC(=O)[C@H](CCCCN)NC(=O)[C@H](CCCCN)NC(=O)[C@H](CCCCN)NC(=O)[C@@H]1CCCN1C(=O)[C@H](CCC(N)=O)NC(=O)[C@H](CO)NC(=O)[C@H](Cc1c[nH]c2ccccc12)NC(=O)[C@H](CC(=O)O)NC(=O)[C@@H](NC(=O)[C@H](Cc1c[nH]c2ccccc12)NC(=O)[C@H](Cc1c[nH]c2ccccc12)NC(=O)[C@@H](NC(=O)[C@H](CC(=O)O)NC(=O)[C@H](Cc1c[nH]c2ccccc12)NC(=O)[C@H](Cc1c[nH]c2ccccc12)NC(=O)[C@@H](NC(=O)[C@H](CC(=O)O)NC(=O)[C@@H](N)CCCCN)[C@@H](C)O)[C@@H](C)O)[C@@H](C)O)C(=O)O [Pep‐1] (H-KDTWWDTWWTDWSQPKKKRKV-OH)
EC50 [1]: 5.3 ± 0.66 µM
EC50 [2]: 698 ± 55 µM

CC(C)C[C@H](NC(=O)[C@H](CC(C)C)NC(=O)[C@H](CCCNC(=N)N)NC(=O)[C@@H](N)CC(C)C)C(=O)N[C@@H](CCCNC(=N)N)C(=O)N[C@@H](Cc1c[nH]c2ccccc12)C(N)=O [LRLLRW] (H-LRLLRW-NH2)
EC50 [1]: 9 ± 1.6 µM
EC50 [2]: 28 ± 10 µM
